Experimental data published in PubChem BioAssay AID849 (SRMLSC, 2007).
Activity calls are given as the source filed them. The rule behind the calls is not given here.

System: Saccharomyces cerevisiae lifespan shortening, growth inhibition
Assay: Saccharomyces cerevisiae growth inhibition potency – dose response (AID 849);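 note: yeast growth read as optical density after two days at 30 degrees C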

Molecule C/C(O)=c1/ccc2cccc3nc(C)nc1c23 has an IC50 of 17.6 µM.
OC(Cn1cncn1)(c1ccccc1)c1ccccc1 gave an IC50 of 13.9 µM.
In the case of CCOc1ccc(/C=C/C(=O)c2cc(Br)ccc(=O)c2O)cc1, the IC50 is reported as 11.5 µM.
For CCc1nc2ccccc2c(=O)n1NC(=O)c1c(O)c2cccc3c2n(c1=O)CCC3, the IC50 was > 100 µM (inactive).
In the case of c1ccc(-c2csc3nnc(SCc4ccc5c(c4)OCO5)n23)cc1, the IC50 is reported as > 100 µM (inactive).
In the case of O=C(CC(=O)c1cc(Cl)ccc1O)c1ccccc1, the IC50 is reported as > 100 µM (inactive).
In the case of O=c1[nH][nH]cc1C=Nc1ccccc1O, the IC50 is reported as > 100 µM (inactive).
For Cc1cccc(/C=C/C(=O)c2cc(Br)ccc(=O)c2O)c1, the IC50 was 8.97 µM.
With O=C1NC(c2ccccn2)Nc2sc3c(c21)CCC3 (stereo not drawn) the IC50 was > 100 µM (inactive).
In the case of Cc1ccc(COc2ccc(Br)cc2/C=N/O)cc1, the IC50 is reported as > 100 µM (inactive).
With Cc1ccccc1C(=O)NNC(=S)NC(=O)COc1ccccc1 the IC50 was 46.3 µM.
In the case of O=[N+]([O-])c1ccc(CN2CCCCCC2)s1, the IC50 is reported as > 100 µM (inactive).
With Cc1cc(O)c(/C=N/Nc2ccccc2)c(=O)o1 the IC50 was 25.2 µM.
With CCCCC(=O)NNC(=S)NC(=O)CCC the IC50 was 32.3 µM.
Molecule O=c1cc(C(F)(F)F)[nH]c2c(C(F)(F)F)cccc12 has an IC50 of 9.03 µM.
For Cc1ccc(C)c(-n2nnnc2SCC(=O)Nc2cccc(-c3nnc4n3CCCCC4)c2)c1, the IC50 was > 100 µM (inactive).
Work on Cc1cc(=O)[nH]c(-n2nc(C)cc2C)n1 yielded an IC50 of 14.3 µM.
CCCCCCc1ccc(-c2ncc(N)cn2)cc1 gave an IC50 of 25.9 µM.
CC(C)N=c1scc(-c2cccs2)n1/N=C/c1ccc(O)c(O)c1O was tested, and the IC50 was > 100 µM (inactive).
Work on Cc1ccc(N2CCOCC2)c2c1C(=O)c1ccccc1C2=O yielded an IC50 of 9.55 µM.
Oc1ccc(COCc2ccccc2)c2cccnc12 was tested, and the IC50 was 6.43 µM.
For COc1ccc(Br)cc1C1CC(=O)N2CN(C)CSC2=C1C#N (stereo not drawn), the IC50 was > 100 µM (inactive).
CCN1CCN(C(=O)C(NS(=O)(=O)c2ccc3nc(C)sc3c2)C(C)C)CC1 (stereo not drawn) was tested, and the IC50 was > 100 µM (inactive).
Molecule CC/C(C)=N/Nc1cccc([N+](=O)[O-])c1 has an IC50 of 7.6 µM.
In the case of COc1ccc2[nH]c3c(Cl)ncnc3c2c1, the IC50 is reported as 18.5 µM.
CC(=O)N1CCN(c2ccc(OC[C@H]3CO[C@](Cn4ccnc4)(c4ccc(Cl)cc4Cl)O3)cc2)CC1 gave an IC50 of 9.27 µM.
Work on Cc1ccc(/C=C2\C(=O)NC(=S)N(c3ccccc3F)C2=O)s1 yielded an IC50 of 13.9 µM.
CC(=O)O/N=C/c1c(N2CCOCC2)n(C)c2ccccc12 was tested, and the IC50 was 12.4 µM.
In the case of CCOc1ccccc1C1CC(c2ccc(Br)cc2)Nc2nc(N)nn21 (stereo not drawn), the IC50 is reported as > 100 µM (inactive).
With NNC(=O)c1cccc(COc2ccc(Br)cc2)c1 the IC50 was 41.9 µM.
Work on CCCCc1oc2ccccc2c1C(=O)c1cc(I)c(OCCN(CC)CC)c(I)c1 yielded an IC50 of 7.79 µM.
Cc1ccc(NC(=O)CSC2=C(C#N)C(c3ccc4c(c3)OCO4)C3=C(CCCC3=O)N2)c(C)c1 (stereo not drawn) was tested, and the IC50 was > 100 µM (inactive).
For COc1ccc(Nc2cnn(-c3nc4ccccc4s3)c(=O)c2Cl)cc1, the IC50 was > 100 µM (inactive).
Molecule Cc1ccc2c(c1)-c1nc3ccccc3cc1C2=NC1CCCCC1 has an IC50 of 35.6 µM.
With Cc1ccc(C(=O)OCn2ncc(Cl)c(Cl)c2=O)cc1 the IC50 was 3.73 µM.
Work on O=C(CCSc1nnc(-c2ccncc2)o1)Nc1ccc(Cl)cc1 yielded an IC50 of 37.7 µM.
For O=C(CCc1ccccc1)NNC(=S)NC(=O)c1ccccc1, the IC50 was > 100 µM (inactive).
C=CCn1c(C)cc(C(=O)CSc2nnc(NCc3ccccc3)s2)c1C was tested, and the IC50 was > 100 µM (inactive).
With CC1=CC(=O)C=C(C)C1=NOS(=O)(=O)c1ccccc1 the IC50 was > 100 µM (inactive).
In the case of CC1(C)Cc2c(C#N)c(N)sc(=S)c2CO1, the IC50 is reported as > 100 µM (inactive).
Cc1ccc(-n2c(C)cc(C(=O)COC(=O)c3ccc[nH]c3=O)c2C)cc1 was tested, and the IC50 was 18.1 µM.
For Cc1cc(-c2ccco2)c(C#N)c2nc3ccccc3n12, the IC50 was 5.77 µM.
COc1ccc(-c2nncnn2)cc1 gave an IC50 of 10 µM.
CCn1c2ccccc2c2cc(Nc3cc(C)nc4ncnn34)ccc21 was tested, and the IC50 was > 100 µM (inactive).
With CC1=NNC(=O)/C1=C\c1cn(-c2ccccc2)nc1-c1cccs1 the IC50 was 36.1 µM.
Cn1c2ccccc2c2cc(C(=O)O)ccc21 showed an IC50 of 25.4 µM.
Cc1ccc(-c2cc(C(=O)N3N=C(C(F)F)CC3(O)C(F)F)c3ccccc3n2)cc1C (stereo not drawn) was tested, and the IC50 was > 100 µM (inactive).
COCCN1CSC(=S)N(Cc2ccco2)C1 gave an IC50 of 20.1 µM.
CCC(C)/C(C)=N/NC(=O)c1ccc(COc2ccc(Cl)c(C)c2)cc1 (stereo not drawn) showed an IC50 of 21.9 µM.
In the case of Cc1noc2ncnc(Sc3ccccc3Cl)c12, the IC50 is reported as 26.6 µM.
C/C(=N\NC(=O)c1ccc(CSc2cccc3cccnc23)cc1)C1CCCCC1 was tested, and the IC50 was 33.8 µM.
Cc1ccc(C(=O)O)cc1N=Cc1cc(Br)cc(Br)c1O was tested, and the IC50 was 37.4 µM.
Cc1ccc(/C(N)=N/OC(=O)c2ccc(Cl)cc2Cl)cc1 was tested, and the IC50 was 18.3 µM.
Cc1nc2c(F)c(F)c(C(F)(F)F)c(F)c2[nH]1 was tested, and the IC50 was > 100 µM (inactive).
With O=C(O)CCn1cc(/C=C/C(=O)c2ccc(Cl)cc2)c(-c2ccc(Br)cc2)n1 the IC50 was > 100 µM (inactive).
In the case of COC(=O)Cn1c2ccccc2c2nc(C)sc21, the IC50 is reported as > 100 µM (inactive).
Work on Cc1nc2ccc(NC(=O)c3cc([N+](=O)[O-])cc([N+](=O)[O-])c3Cl)cc2s1 yielded an IC50 of 28.9 µM.
Cc1ccccc1NC(=S)c1nc2ccccc2[nH]1 was tested, and the IC50 was 29.5 µM.
For O=C(Oc1csc(=S)n1C(=O)c1ccccc1)c1ccccc1, the IC50 was > 100 µM (inactive).
O=C(OCn1ncc(Br)c(Br)c1=O)c1ccccc1Cl was tested, and the IC50 was > 100 µM (inactive).
Nc1nonc1C(=O)NCCN=Cc1cc(Cc2ccccc2)cc(Br)c1O was tested, and the IC50 was > 100 µM (inactive).
With O=c1[nH]c2ccccc2c2nc3ccccn3c12 the IC50 was 40 µM.
Clc1ccc(CSC(Cn2ccnc2)c2ccc(Cl)cc2Cl)cc1 (stereo not drawn) gave an IC50 of 0.528 µM.
Cc1ccc(-n2c(Cl)c(Cl)nc(Cl)c2=O)cc1 was tested, and the IC50 was 14.6 µM.
Molecule CCCOC(=O)c1ccc(Oc2cn[nH]c2-c2ccc(OC)cc2O)cc1 has an IC50 of 26 µM.
Molecule Cc1cc(O)c(/C=N/Nc2cccc(Cl)c2)c(=O)o1 has an IC50 of 40.3 µM.
COc1ccc(/C(C)=N/NC(=O)c2ccc(CSc3cccc4cccnc34)cc2)cc1OC was tested, and the IC50 was > 100 µM (inactive).
With CCCOC(=O)c1ccc(Oc2cn[nH]c2-c2ccc(OCC)cc2O)cc1 the IC50 was > 100 µM (inactive).
With Oc1c(Br)cc(Br)cc1C=Nc1ccc2c(c1)OCO2 the IC50 was > 100 µM (inactive).
Cc1ccc(NN2C(=O)C=C(c3ccc(Cl)cc3)C2=O)cc1 gave an IC50 of 18.4 µM.
For CCOC(=O)C1CCCCN1C(=O)CCc1c(C)nc2cc(-c3ccccc3)nn2c1C (stereo not drawn), the IC50 was > 100 µM (inactive).
O=C(O)c1ccc(SCc2cnc(Cl)s2)cc1 was tested, and the IC50 was 7.4 µM.
In the case of Cn1c(N2CCOCC2)c(/C=N/OC(=O)c2ccc(F)cc2)c2ccccc21, the IC50 is reported as 42.2 µM.
COc1ccccc1OCC(=O)n1cc(C(=O)c2cc(Cl)cc(Cl)c2O)cn1 was tested, and the IC50 was 5.95 µM.
With COC1=C(c2ccccc2)C(=O)c2ccccc2C1=O the IC50 was 16.2 µM.
Work on Cc1nn2c(-c3ccncc3)nnc2c2ccccc12 yielded an IC50 of 6.35 µM.
With CC(C)(C)c1cc(NCCCn2ccnc2)n2ncc(-c3ccc(Cl)cc3)c2n1 the IC50 was > 100 µM (inactive).
CCCCCCCCCCCCCCCC[n+]1ccc(/C=N/O)cc1 gave an IC50 of 1.54 µM.
With COc1ccccc1-n1c(=O)oc2ccc(Cl)cc2c1=O the IC50 was > 100 µM (inactive).
O=C(c1ccc(C(=O)N2CCCc3ccccc32)s1)N1CCCc2ccccc21 was tested, and the IC50 was 35.6 µM.
Molecule Cc1cccc(C(=O)CC(=O)c2cc(Cl)ccc2O)c1 has an IC50 of 45.7 µM.
Molecule Cc1cccc(OCCCOc2cccc3cccnc23)c1C has an IC50 of 26.5 µM.
Oc1ccccc1NCC(O)Cn1ccc2ccccc21 (stereo not drawn) was tested, and the IC50 was > 100 µM (inactive).
